Test system: AsPC-1 cells
Test: AsPC-1 TGI-70 xenograft tumor volume study
Format: in vivo, nude/nude mice
Conditions: for Average Tumor Volumes: MRTX0902 50 mg/kg BID daily, alone or combined, 5 mice per group
Description: Experimental Procedures. 20 nude/nude mice were inoculated with AsPC-1 cells in the right hind flank. When the tumors reached ˜200 mm^3 four treatment groups were established with five mice per group.

## Cc1c(C#N)cccc1[C@@H](C)Nc1nnc(C)c2cnc(N3CCOCC3)cc12 [MRTX0902]
Day 13, MRTX0902 50 mg/kg BID daily as a single agent
  tumor growth inhibition: 26%
Study Day 1, MRTX1133 30 mg/kg BID daily
  Average Tumor Volumes: 194.8 mm^3
Study Day 6, MRTX1133 30 mg/kg BID daily
  Average Tumor Volumes: 215.066 mm^3
Study Day 9, MRTX1133 30 mg/kg BID daily
  Average Tumor Volumes: 220.892 mm^3
Study Day 13, MRTX1133 30 mg/kg BID daily
  Average Tumor Volumes: 262.374 mm^3
Study Day 16, MRTX1133 30 mg/kg BID daily
  Average Tumor Volumes: 316.164 mm^3
Study Day 20, MRTX1133 30 mg/kg BID daily
  Average Tumor Volumes: 387.59 mm^3
Study Day 23, MRTX1133 30 mg/kg BID daily
  Average Tumor Volumes: 480.782 mm^3

## C#Cc1c(F)ccc2cc(O)cc(-c3ncc4c(N5C[C@H]6CC[C@@H](C5)N6)nc(OC[C@@]56CCCN5C[C@H](F)C6)nc4c3F)c12 [MRTX1133, 4-(4-((1R,5S)-3,8-diazabicyclo[3.2.1]octan-3-yl)-8-fluoro-2-(((2R,7aS)-2-fluorohexahydro-1H-pyrrolizin-7a-yl)methoxy)pyrido[4,3-d]pyrimidin-7-yl)-5-ethynyl-6-fluoronaphthalen-2-ol]
Day 13, MRTX1133 30 mg/kg BID daily, alone or with MRTX0902 twice daily
  tumor regression: 26%

Reference: patent US20250000863A1, “COMBINATION THERAPIES OF KRAS G12D INHIBITORS WITH SOS1 INHIBITORS” (MIRATI THERAPEUTICS, INC., priority 2021, published 2025)
